Results on 18 molecules are retold here after patent publication US20080214537A1, “BRIDGED PHENANTHRIDINES” (CARA THERAPEUTICS, INC., priority 2007, published 2008).

For assay [1], the target named is human CB2 receptor (hCB2) (Homo sapiens, UniProt P34972). Nature of the assay: cAMP assay (LANCE TR-FRET) in CHO-K1 cells expressing hCB2. In kind it is cell-based. The note with it: for Emax: CHO-K1, intrinsic activity: percent maximal activation compared to full activation by CP55,940 (1 μM = 100%), read-out: hCB2 % Max Range; for EC50: CHO-K1 cells stably expressing hCB2, intracellular cAMP, NKH-477 prestimulated, average of at least three replicates. The method, then: (§1) The ability of compounds to act as agonists or inverse agonists at human CB2 and CB1 receptors (hCB2, hCB1, respectively) was determined by measuring changes in intracellular cAMP levels. Chinese Hamster Ovary (CHO-K1) cell lines stably expressing hCB2 (Genebank: X74328) or hCB1 (Genebank: X54937) were purchased from Euroscreen (Gosselies, Belgium).
(§2) Cell lines were grown in suspension in EX-CELL 302 CHO Serum-free medium (Sigma, catalog #14324C) supplemented with 1% Fetal Bovine Serum, glutamine and with or without non-essential amino-acids under 0.4 mg/mL G418 selection.
(§3) Receptor mediated responses were determined by measuring changes in intracellular cAMP using LANCE cAMP detection kit (catalog #AD0264, PerkinElmer, Wellesley, Mass.) based on time-resolved fluorescence resonance energy transfer (TR-FRET). Changes in cAMP were determined in cells pre-incubated with IBMX (isobutyl methylxanthine) and prestimulated with NKH-477 (a water soluble forskolin derivative, catalog #1603, Tocris, Ellisville, Mo.) to increase basal cAMP levels as detailed below.
(§4) On the day of the experiment, cells were spun at low speed for 5 min at room temperature. The supernatant was removed and cells were resuspended in stimulation buffer (Hanks Buffered Salt Solution/5 mM HEPES, containing 0.5 mM IBMX (catalog #17018, Sigma) and 0.02% BSA (PerkinElmer, catalog #CR84-100)). Cell clumps were removed by filtering through cell strainer 40 μm (BD Falcon, Discovery Labware, Bedford, Mass.) and diluted to 2×10^5 cells/mL. Antibody supplied with the LANCE cAMP immunoassay kit was then added according to the manufacturer's instructions. An aliquot of cells was taken for un-induced controls. To the remaining cells was added NKH-477 (a water soluble forskolin derivative, Tocris catalog #1603) to a final concentration of 2-8 μM. Cells were then incubated for either 25 or 30 min at room temperature prior to adding to Proxiplates containing test compounds (final DMSO concentration was less than 0.5%) with a Multidrop bulk dispenser, followed by a sixty minute incubation at room temperature. The response was stopped by addition of the detection mix supplied with the LANCE kit.
(§5) The reagents were allowed to equilibrate for three hours prior to reading on an Envision multi-mode detector (PerkinElmer). TR-FRET was measured using a 330-380 nm excitation filter, 615 and 665 nm emission filters, dichroic mirror 380 nm and Z=1 mm.
(§6) Cyclic AMP concentrations in each well were back-calculated from a cAMP standard curve run concurrently during each assay. Each plate contained 16 wells of forskolin stimulated cells and 16 wells of forskolin plus CP55,940-treated. CP55,940-treated cells were treated with CP55,940 (Tocris catalog #0949) at 1 μM and the maximal response was used as the full range (100%) standard. WIN55,212 (Tocris catalog #1038) was used as an internal standard. Concentrations of cAMP were expressed as a percent of the difference of these two groups of wells. Concentration-response data including EC50 (the concentration of compound producing 50% of the maximal response) and intrinsic activity (the percent maximal activation compared to full activation by CP55,940) were determined using a four-parameter non-linear regression algorithm (Xlfit equation 251, IDBS). Assays were performed with at least three replicates per compound and averaged results for the several compounds of the invention are shown in Table I.

Assay [2] concerns the target human CB1 receptor (hCB1) (Homo sapiens, UniProt P21554). The assay is described as follows: cAMP assay (LANCE TR-FRET) in CHO-K1 cells expressing hCB1. In kind it is cell-based. The note with it: activity on hCB1 represents inverse agonism; for Emax: CHO-K1, percent of range defined by CP55,940 (1 μM = 100%), read-out: hCB1 % Max Range; for EC50: CHO-K1 cells stably expressing hCB1, intracellular cAMP, NKH-477 prestimulated. As for the experimental part:
as §1, §2, §3, §4, §5
as §6, with “IDBS).” for “IDBS). Assays were performed with at least three replicates per compound and averaged results for the several compounds of the invention are shown in Table I.”
A general note: Cyclic AMP is a second messenger, typically raised through Gs and lowered through Gi signalling.

By EC50 is commonly meant the midpoint of the concentration-response curve. Low readings indicate a more potent agent, high ones a less potent agent.

Sequence of human CB1 receptor (hCB1) (P21554 whole entry): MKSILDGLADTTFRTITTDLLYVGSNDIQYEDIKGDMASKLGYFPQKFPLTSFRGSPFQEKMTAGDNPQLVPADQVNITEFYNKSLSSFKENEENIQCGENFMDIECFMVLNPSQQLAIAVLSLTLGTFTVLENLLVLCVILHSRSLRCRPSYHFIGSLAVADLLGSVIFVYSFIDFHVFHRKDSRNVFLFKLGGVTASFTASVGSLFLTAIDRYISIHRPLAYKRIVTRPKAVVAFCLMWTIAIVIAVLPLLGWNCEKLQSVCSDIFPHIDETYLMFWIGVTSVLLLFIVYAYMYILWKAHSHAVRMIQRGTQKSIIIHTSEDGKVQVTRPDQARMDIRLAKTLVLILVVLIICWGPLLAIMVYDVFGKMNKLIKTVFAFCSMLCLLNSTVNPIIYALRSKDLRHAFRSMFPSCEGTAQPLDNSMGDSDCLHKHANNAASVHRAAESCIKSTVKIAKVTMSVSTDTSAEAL
Sequence of human CB2 receptor (hCB2) (P34972 whole entry): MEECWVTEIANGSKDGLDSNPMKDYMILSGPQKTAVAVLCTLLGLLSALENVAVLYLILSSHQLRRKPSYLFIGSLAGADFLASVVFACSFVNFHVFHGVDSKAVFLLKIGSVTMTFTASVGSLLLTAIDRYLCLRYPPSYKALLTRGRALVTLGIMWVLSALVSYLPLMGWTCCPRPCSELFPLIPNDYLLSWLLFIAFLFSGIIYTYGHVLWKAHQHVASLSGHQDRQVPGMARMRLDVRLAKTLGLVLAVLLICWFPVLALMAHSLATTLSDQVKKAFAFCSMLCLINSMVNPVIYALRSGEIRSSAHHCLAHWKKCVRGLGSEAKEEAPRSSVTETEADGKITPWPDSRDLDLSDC

Take `Cc1ccc(C2Nc3ccc(NC(=O)C4CC4)cc3C3C4CCC(C4)C23)cc1` (stereo not drawn) [(22), Bridged N-(6-p-tolyl-5,6,6a,7,8,9,10,10a-octahydrophenanthridin-2-yl)cyclopropanecarboxamide]: in assay [1], the Emax stood at 53% and the EC50 came to 14 nM. Besides, in assay [2], the Emax is 115% and a half-maximal response (EC50) required 1810 nM.
With `CC(=O)Nc1ccc2c(c1)C1C3CCC(C3)C1C(c1ccccc1)N2` (stereo not drawn) [(23), Bridged N-(6-phenyl-5,6,6a,7,8,9,10,10a-octahydrophenanthridin-2-yl)acetamide], in assay [1], the Emax was 82% and a half-maximal effect (EC50) was put at 43 nM. In assay [2], the Emax is 88% and the EC50 was found to be 2610 nM.
For `CC(=O)Nc1ccc2c(c1)C1C3CCC(C3)C1C(c1c(Cl)cccc1Cl)N2` (stereo not drawn) [(24), Bridged N-(6-(2,6-dichlorophenyl)-5,6,6a,7,8,9,10,10a-octahydrophenanthridin-2-yl)acetamide], in that order: less than 40%, greater than 10000 nM, less than 40% and greater than 10000 nM.
On the same counts, the results for `CCCNC(=O)Nc1ccc2c(c1)C1C3CCC(C3)C1C(c1c(Cl)cccc1Cl)N2` (stereo not drawn) [(26), Bridged 1-(6-(2,6-dichlorophenyl)-5,6,6a,7,8,9,10,10a-octahydrophenanthridin-2-yl)-3-propylurea] are less than 40%, greater than 10000 nM, less than 40% and greater than 10000 nM.
In the case of `CCCNC(=S)Nc1ccc2c(c1)C1C3CCC(C3)C1C(c1c(Cl)cccc1Cl)N2` (stereo not drawn) [(27), Bridged 1-(6-(2,6-dichlorophenyl)-5,6,6a,7,8,9,10,10a-octahydrophenanthridin-2-yl)-3-propylthiourea], in assay [1], the Emax was less than 40% and the EC50 was greater than 10000 nM. Moreover, in assay [2], the Emax is less than 40% and the EC50 is greater than 10000 nM.
Regarding `O=C(NCc1ccccc1)c1ccc2c(c1)C1C3CCC(C3)C1C(c1ccccc1)N2` (stereo not drawn) [(28), Bridged N-benzyl-6-phenyl-5,6,6a,7,8,9,10,10a-octahydrophenanthridine-2-carboxamide], the values for the Emax in assay [1] and in assay [2] were 84.4% and less than 40%, respectively. For the same molecule, the EC50 in assay [1] was 373 nM; in assay [2] it was greater than 10000 nM.
For the molecule `CCCCC(=O)Nc1ccc2c(c1)C1C3CCC(C3)C1C(c1ccc(C)cc1)N2` (stereo not drawn) [(29), Bridged N-(6-p-tolyl-5,6,6a,7,8,9,10,10a-octahydrophenanthridin-2-yl)pentanamide], the Emax in assay [1] was 54.8%; in assay [2], less than 40%. Further, the results for the EC50 in assay [1] and in assay [2] were 66.7 nM and greater than 10000 nM, respectively.
As for `CN(C)S(=O)(=O)c1ccc2c(c1)C1C3CCC(C3)C1C(c1cncnc1)N2` (stereo not drawn) [(30), Bridged N,N-dimethyl-6-(pyrimidin-5-yl)-5,6,6a,7,8,9,10,10a-octahydrophenanthridine-2-sulfonamide], in assay [1], the Emax came to 99.3% and the EC50 came out at 72.8 nM. Besides, in assay [2], the Emax is less than 40% and the EC50 was greater than 10000 nM.
Regarding `CN(C)S(=O)(=O)c1ccc2c(c1)C1C3CCC(C3)C1C(c1nccs1)N2` (stereo not drawn) [(31), Bridged N,N-dimethyl-6-(thiazol-2-yl)-5,6,6a,7,8,9,10,10a-octahydrophenanthridine-2-sulfonamide], in assay [1], the Emax was determined as 89.2% and the EC50 worked out at 103 nM. In addition, in assay [2], the Emax is less than 40% and the EC50 was greater than 10000 nM.
`CC(=O)Nc1ccc(C2Nc3ccc(S(=O)(=O)N(C)C)cc3C3C4CCC(C4)C23)cc1` (stereo not drawn) [(32), Bridged N-(4-(2-(N,N-dimethylsulfamoyl)-5,6,6a,7,8,9,10,10a-octahydrophenanthridin-6-yl)phenyl)acetamide]: the Emax in assay [1] is 81.3%; in assay [2], less than 40%. The EC50 was 225 nM in assay [1] and greater than 10000 nM in assay [2].
For `CN(C)S(=O)(=O)c1ccc2c(c1)C1C3CCC(C3)C1C(c1ccnn1C)N2` (stereo not drawn) [(33), Bridged N,N-dimethyl-6-(1-methyl-1H-pyrazol-5-yl)-5,6,6a,7,8,9,10,10a-octahydrophenanthridine-2-sulfonamide], in that order: 94.9%, less than 40%, 7.5 nM and greater than 10000 nM.
For `O=S(=O)(c1ccc2c(c1)C1C3CCC(C3)C1C(c1cncnc1)N2)N1CCOCC1` (stereo not drawn) [(35), Bridged 4-(6-(pyrimidin-5-yl)-5,6,6a,7,8,9,10,10a-octahydrophenanthridin-2-ylsulfonyl)morpholine], in that order: 66.6%, less than 40%, 1300 nM and greater than 10000 nM.
On the same counts, the results for `O=S(=O)(c1ccc2c(c1)C1C3CCC(C3)C1C(c1nccs1)N2)N1CCOCC1` (stereo not drawn) [(36), Bridged 4-(6-(thiazol-2-yl)-5,6,6a,7,8,9,10,10a-octahydrophenanthridin-2-ylsulfonyl)morpholine] are 57.1%, less than 40%, 4120 nM and greater than 10000 nM.
On to `Cn1nccc1C1Nc2ccc(S(=O)(=O)N3CCOCC3)cc2C2C3CCC(C3)C12` (stereo not drawn) [(37), Bridged 4-(6-(1-methyl-1H-pyrazol-5-yl)-5,6,6a,7,8,9,10,10a-octahydrophenanthridin-2-ylsulfonyl)morpholine], for which the values for the Emax in assay [1] and in assay [2] were 92.6% and less than 40%, respectively. Moreover, the EC50 in assay [1] is 1.7 nM; in assay [2], greater than 10000 nM.
For `CN(C1CCCCC1)S(=O)(=O)c1ccc2c(c1)C1C3CCC(C3)C1C(c1ccccc1)N2` (stereo not drawn) [(38), Bridged N-cyclohexyl-N-methyl-6-phenyl-5,6,6a,7,8,9,10,10a-octahydrophenanthridine-2-sulfonamide], in that order: 79.5%, less than 40%, 8.5 nM and greater than 10000 nM.
As for `NS(=O)(=O)c1ccc2c(c1)C1C3CCC(C3)C1C(c1ccccc1)N2` (stereo not drawn) [(39), Bridged 6-phenyl-5,6,6a,7,8,9, 10,10a-octahydrophenanthridine-2-sulfonamide], in assay [1], the Emax was 83.3% and the EC50 was found to be 17.7 nM. In addition, in assay [2], the Emax was 172% and the EC50 was 3040 nM.
For `Cn1nccc1C1Nc2ccc(S(N)(=O)=O)cc2C2C3CCC(C3)C12` (stereo not drawn) [(40), Bridged 6-(1-methyl-1H-pyrazol-5-yl)-5,6,6a,7,8,9,10,10a-octahydrophenanthridine-2-sulfonamide], in that order: 82.7%, 2000 nM, less than 40% and greater than 10000 nM.
`O=S(=O)(c1ccc2c(c1)C1C3CCC(C3)C1C(c1ccccc1)N2)N1CCCC1` (stereo not drawn) [(41), Bridged 6-phenyl-2-(pyrrolidin-1-ylsulfonyl)-5,6,6a,7,8,9,10,10a-octahydrophenanthridine]: in assay [1], the Emax is 104% and the EC50 was 0.81 nM. Further, in assay [2], the Emax was less than 40% and the EC50 was greater than 10000 nM.
